Measured values: ChEMBL document CHEMBL1146156, “Fish venom (Pterios volitans) peptide reduces tumor burden and ameliorates oxidative stress in Ehrlich's ascites carcinoma xenografted mice” (2006)

Assays:
Format in all cases: functional
Mus musculus [1] = experiment: Effect on hydroperoxide levels in liver of Ehrlich's ascites carcinoma xenografted Swiss Albino mouse at 20 mg/kg measured per 100 g tissue
Mus musculus [2] = experiment: Increase in mean survival time of Ehrlich's ascites carcinoma xenografted Swiss Albino mouse at 20 mg/kg
Mus musculus [3] = experiment: Increase in liver catalase activity of Ehrlich's ascites carcinoma xenografted Swiss Albino mouse at 20 mg/kg
Mus musculus [4] = experiment: Effect on TBARS levels in liver of Ehrlich's ascites carcinoma xenografted Swiss Albino mouse at 20 mg/kg measured per 100 g tissue
Mus musculus [5] = experiment: Increase in life span of Ehrlich's ascites carcinoma xenografted Swiss Albino mouse at 20 mg/kg
Mus musculus [6] = experiment: Increase in liver SOD activity of Ehrlich's ascites carcinoma xenografted Swiss Albino mouse at 20 mg/kg
Mus musculus [7] = experiment: Increase in liver glutathione peroxidase activity of Ehrlich's ascites carcinoma xenografted Swiss Albino mouse at 20 mg/kg
Mus musculus [8] = experiment: Increase in liver GST activity of Ehrlich's ascites carcinoma xenografted Swiss Albino mouse at 20 mg/kg
Mus musculus [9] = experiment: Decrease in body weight of Ehrlich's ascites carcinoma xenografted Swiss albino mouse at 20 mg/kg
Mus musculus [10] = experiment: Effect on GSH content in liver of Ehrlich's ascites carcinoma xenografted Swiss Albino mouse at 20 mg/kg measured per 100 g tissue

Question: How did the Activity (Mus musculus [1]) turn out when `O=c1[nH]cc(F)c(=O)[nH]1` [FLUOROURACIL] was run?
Answer: 0.85 mmol

Question: And the MST (Mus musculus [2])?
Answer: 39.5 days

Question: And the Activity (Mus musculus [3])?
Answer: 20.4 U/mg

Question: And the Activity (Mus musculus [4])?
Answer: 0.99 mmol

Question: What about the Activity (Mus musculus [5]) of the same compound?
Answer: 119.49%

Question: What about the Activity (Mus musculus [6]) of the same compound?
Answer: 3.96 U/mg

Question: What about the Activity (Mus musculus [7]) of the same compound?
Answer: 6.97 U/mg

Question: And the Activity (Mus musculus [8])?
Answer: 16.2 U/mg

Question: And the Activity (Mus musculus [9])?
Answer: 25.2 g

Question: And the Activity (Mus musculus [10])?
Answer: 3.65 mmol
